Measurements taken from patent US8859584B2, “TRPV1 antagonists” (AbbVie Inc., priority 2011, dated 2014).

Assays:
[1] = target: T1, human TRPV1 (Homo sapiens, UniProt Q8NER1); assay: Acid Activation Assay (pH 5.0, FLIPR intracellular Ca2+, recombinant HEK293 cells); type: cell-based; details: percentage of maximal pH 5.0-induced response remaining; HEK293 hTRPV1; max concentration 37.5 μM
T1 construct: expressed in transfected cells
How it was run: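 HEK293 cells stably expressing recombinant hTRPV1 were loaded with calcium dye for 90-120 min at 25° C and pre-treated with compound for 3 min before a pH 5.0 (DPBS/MES) challenge. Peak FLIPR fluorescence over baseline is given as percentage of the maximal pH 5.0-induced response.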

[2] = target: T1, human TRPV1; assay: Capsaicin Activation Assay (FLIPR intracellular Ca2+, recombinant HEK293 cells); type: cell-based; details: recombinant HEK293 cells expressing hTRPV1; 50 nM capsaicin; read-out: human TRPV1 capsaicin IC50

T1 sequence (Q8NER1 whole entry): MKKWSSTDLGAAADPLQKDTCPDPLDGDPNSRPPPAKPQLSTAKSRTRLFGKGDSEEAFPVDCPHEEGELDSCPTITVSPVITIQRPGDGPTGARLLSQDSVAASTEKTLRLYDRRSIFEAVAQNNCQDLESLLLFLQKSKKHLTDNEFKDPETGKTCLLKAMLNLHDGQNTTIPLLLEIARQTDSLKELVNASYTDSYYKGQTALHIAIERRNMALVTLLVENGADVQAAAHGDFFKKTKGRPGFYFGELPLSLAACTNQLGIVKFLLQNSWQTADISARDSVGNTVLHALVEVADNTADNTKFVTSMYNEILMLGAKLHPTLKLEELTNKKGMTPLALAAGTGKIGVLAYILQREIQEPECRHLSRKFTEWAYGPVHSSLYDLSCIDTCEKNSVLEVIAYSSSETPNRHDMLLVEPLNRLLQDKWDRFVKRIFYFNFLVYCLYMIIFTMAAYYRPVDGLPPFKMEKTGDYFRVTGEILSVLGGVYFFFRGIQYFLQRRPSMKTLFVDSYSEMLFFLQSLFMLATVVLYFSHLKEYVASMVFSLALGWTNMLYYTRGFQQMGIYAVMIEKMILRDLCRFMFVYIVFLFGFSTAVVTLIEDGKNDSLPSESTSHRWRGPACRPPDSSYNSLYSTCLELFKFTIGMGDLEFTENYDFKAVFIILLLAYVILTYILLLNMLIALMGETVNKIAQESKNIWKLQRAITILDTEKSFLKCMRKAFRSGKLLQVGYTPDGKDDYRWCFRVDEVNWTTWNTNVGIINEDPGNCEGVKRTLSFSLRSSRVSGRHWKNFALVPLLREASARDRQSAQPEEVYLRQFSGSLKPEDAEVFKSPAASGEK

Compound | human TRPV1 H+ (max % remain) [1] | IC50 [2]
CC1(C)Oc2ccc(F)cc2CC1NC(=O)Nc1cccc2c1C[C@H](O)C2 (stereo partly drawn) [Example 91, 1-(6-fluoro-2,2-dimethyl-3,4-dihydro-2H-chromen-3-yl)-3-[(2R)-2-hydroxy-2,3-dihydro-1H-inden-4-yl]urea] | 78% | 82 nM
CC1(C)C[C@@H](NC(=O)Nc2ccc(F)c3c2C[C@H](O)C3)c2ccc(F)cc2O1 [Example 138, 1-[(4R)-7-fluoro-2,2-dimethyl-3,4-dihydro-2H-chromen-4-yl]-3-[(2S)-7-fluoro-2-hydroxy-2,3-dihydro-1H-inden-4-yl]urea] | 4% | 820 nM
C[C@]1(C(F)F)C[C@@H](NC(=O)Nc2cccc3c2C[C@H](O)C3)c2ccc(Cl)cc2O1 [Example 33, 1-[(2R,4R)-7-chloro-2-(difluoromethyl)-2-methyl-3,4-dihydro-2H-chromen-4-yl]-3-[(2R)-2-hydroxy-2,3-dihydro-1H-inden-4-yl]urea] | 51% | 27 nM
CC1(C)C[C@@H](NC(=O)Nc2cccc3c2C[C@@H](O)C3)c2ccc(F)c(F)c2O1 [Example 38, 1-[(4R)-7,8-difluoro-2,2-dimethyl-3,4-dihydro-2H-chromen-4-yl]-3-[(2S)-2-hydroxy-2,3-dihydro-1H-inden-4-yl]urea] | 43% | 37 nM
COc1ccc2c(c1)OCCC2NC(=O)Nc1cccc2c1CC(O)C2 (centres unmarked) [Example 107, 1-(2-hydroxy-2,3-dihydro-1H-inden-4-yl)-3-(7-methoxy-3,4-dihydro-2H-chromen-4-yl)urea] | 55% | 2200 nM
C[C@]1(CF)C[C@@H](NC(=O)Nc2ccc3c(c2)C(O)C3)c2ccccc2O1 (stereo partly drawn) [Example 132, 1-[(2R,4R)-2-(fluoromethyl)-2-methyl-3,4-dihydro-2H-chromen-4-yl]-3-(8-hydroxybicyclo[4.2.0]octa-1,3,5-trien-3-yl)urea] | 95% | 31000 nM
O=C(NCC1CCc2cc(C(F)(F)F)ccc2O1)Nc1cccc2c1C[C@H](O)C2 (stereo partly drawn) [Example 26, 1-[(2R)-2-hydroxy-2,3-dihydro-1H-inden-4-yl]-3-{[6-(trifluoromethyl)-3,4-dihydro-2H-chromen-2-yl]methyl}urea] | 66% | 770 nM
O=C(Nc1ccc(F)c2c1C[C@H](O)C2)N[C@@H]1CC(CF)(CF)Oc2c(F)cc(F)cc21 [Example 142, 1-[(4R)-6,8-difluoro-2,2-bis(fluoromethyl)-3,4-dihydro-2H-chromen-4-yl]-3-[(2S)-7-fluoro-2-hydroxy-2,3-dihydro-1H-inden-4-yl]urea] | 4% | 4000 nM
O=C(Nc1ccc(F)c2c1C[C@H](O)C2)N[C@@H]1CCOc2cc(OC(F)(F)F)ccc21 [Example 150, 1-[(2S)-7-fluoro-2-hydroxy-2,3-dihydro-1H-inden-4-yl]-3-[(4R)-7-(trifluoromethoxy)-3,4-dihydro-2H-chromen-4-yl]urea] | 3% | 1600 nM
CCCC1(CCC)C[C@@H](NC(=O)Nc2cccc3c2C[C@H](O)C3)c2cc(F)ccc2O1 [Example 56, 1-[(4R)-6-fluoro-2,2-dipropyl-3,4-dihydro-2H-chromen-4-yl]-3-[(2R)-2-hydroxy-2,3-dihydro-1H-inden-4-yl]urea] | 96% | 46 nM
CCC1(CC)C[C@@H](NC(=O)Nc2cccc3c2C[C@H](O)C3)c2cc(F)ccc2O1 [Example 58, 1-[(4R)-2,2-diethyl-6-fluoro-3,4-dihydro-2H-chromen-4-yl]-3-[(2R)-2-hydroxy-2,3-dihydro-1H-inden-4-yl]urea] | 67% | 24 nM
O=C(Nc1cccc2c1C[C@H](O)C2)N[C@@H]1CCOc2c(F)cc(F)cc21 [Example 64, 1-[(4R)-6,8-difluoro-3,4-dihydro-2H-chromen-4-yl]-3-[(2R)-2-hydroxy-2,3-dihydro-1H-inden-4-yl]urea] | 90% | 4800 nM
O=C(Nc1cccc2c1C[C@@H](O)C2)N[C@@H]1CC(CF)(CF)Oc2cc(C(F)(F)F)ccc21 [Example 74, 1-[(4R)-2,2-bis(fluoromethyl)-7-(trifluoromethyl)-3,4-dihydro-2H-chromen-4-yl]-3-[(2S)-2-hydroxy-2,3-dihydro-1H-inden-4-yl]urea] | 2% | 14 nM
CC1(C)C[C@@H](NC(=O)Nc2ccc(F)c3c2C[C@H](O)C3)c2cccc(OC(F)(F)F)c2O1 [Example 154, 1-[(4R)-2,2-dimethyl-8-(trifluoromethoxy)-3,4-dihydro-2H-chromen-4-yl]-3-[(2S)-7-fluoro-2-hydroxy-2,3-dihydro-1H-inden-4-yl]urea] | 3% | 82 nM
CN1CC[C@@H](NC(=O)Nc2cccc3c2C[C@H](O)C3)c2ccc(C(F)(F)F)cc21 [Example 23, 1-[(2R)-2-hydroxy-2,3-dihydro-1H-inden-4-yl]-3-[(4R)-1-methyl-7-(trifluoromethyl)-1,2,3,4-tetrahydroquinolin-4-yl]urea] | 74% | 51 nM
1-[(4R)-7-fluoro-2,2-dimethyl-3,4-dihydro-2H-chromen-4-yl]-3-[(2R)-7-fluoro-2-hydroxy-2,3-dihydro-1H-inden-4-yl]urea [Example 158] | 48% | 600 nM
O=C(Nc1ccc(F)c2c1C[C@H](O)C2)N[C@@H]1CCOc2c(OC(F)(F)F)cccc21 [Example 137, 1-[(2S)-7-fluoro-2-hydroxy-2,3-dihydro-1H-inden-4-yl]-3-[(4R)-8-(trifluoromethoxy)-3,4-dihydro-2H-chromen-4-yl]urea] | 4% | 350 nM
O=C(Nc1c(F)ccc2c1C[C@H](O)C2)N[C@@H]1CC(CF)(CF)Oc2cc(C(F)(F)F)ccc21 [Example 96, 1-[(4R)-2,2-bis(fluoromethyl)-7-(trifluoromethyl)-3,4-dihydro-2H-chromen-4-yl]-3-[(2R)-5-fluoro-2-hydroxy-2,3-dihydro-1H-inden-4-yl]urea] | 2% | 62 nM
O=C(Nc1ccc(F)c2c1C[C@H](O)C2)N[C@@H]1CC(CF)(CF)Oc2cc(OC(F)(F)F)ccc21 [Example 139, 1-[(4R)-2,2-bis(fluoromethyl)-7-(trifluoromethoxy)-3,4-dihydro-2H-chromen-4-yl]-3-[(2S)-7-fluoro-2-hydroxy-2,3-dihydro-1H-inden-4-yl]urea] | 2% | 370 nM
O=C(Nc1cccc2c1C[C@H](O)C2)N[C@@H]1CC2(CCC2)Oc2ccc(F)cc21 [Example 8, 1-[(4R)-6-fluoro-3,4-dihydrospiro[chromene-2,1′-cyclobutan]-4-yl]-3-[(2R)-2-hydroxy-2,3-dihydro-1H-inden-4-yl]urea] | 50% | 35 nM
O=C(Nc1cccc2c1C[C@H](O)C2)N[C@@H]1CC2(CCCC2)Oc2ccccc21 [Example 128, 1-[(4R)-3,4-dihydrospiro[chromene-2,1′-cyclopentan]-4-yl]-3-[(2R)-2-hydroxy-2,3-dihydro-1H-inden-4-yl]urea] | 75% | 410 nM
COCC1(COC)C[C@@H](NC(=O)Nc2cccc3c2C[C@H](O)C3)c2cc(F)ccc2O1 [Example 68, 1-[(4R)-6-fluoro-2,2-bis(methoxymethyl)-3,4-dihydro-2H-chromen-4-yl]-3-[(2R)-2-hydroxy-2,3-dihydro-1H-inden-4-yl]urea] | 79% | 970 nM
O=C(Nc1cccc2c1C[C@H](O)C2)N[C@@H]1CCOc2cc(C(F)(F)F)ccc21 [Example 21, 1-[(2R)-2-hydroxy-2,3-dihydro-1H-inden-4-yl]-3-[(4R)-7-(trifluoromethyl)-3,4-dihydro-2H-chromen-4-yl]urea] | 74% | 89 nM
O=C(Nc1cccc2c1CC(O)C2)NC1c2ccccc2OCC1Cc1ccccc1 (centres unmarked) [Example 111, 1-(3-benzyl-3,4-dihydro-2H-chromen-4-yl)-3-(2-hydroxy-2,3-dihydro-1H-inden-4-yl)urea] | 94% | 2200 nM
O=C(Nc1ccc(F)c2c1C[C@H](O)C2)N[C@@H]1CC2(CCC2)Oc2ccc(F)cc21 [Example 143, 1-[(4R)-6-fluoro-3,4-dihydrospiro[chromene-2,1′-cyclobutan]-4-yl]-3-[(2S)-7-fluoro-2-hydroxy-2,3-dihydro-1H-inden-4-yl]urea] | 3% | 1100 nM
C[C@@]1(C(F)F)C[C@@H](NC(=O)Nc2cccc3c2C[C@H](O)C3)c2ccccc2O1 [Example 126, 1-[(2S,4R)-2-(difluoromethyl)-2-methyl-3,4-dihydro-2H-chromen-4-yl]-3-[(2R)-2-hydroxy-2,3-dihydro-1H-inden-4-yl]urea] | 88% | 1400 nM
O=C(Nc1cccc2c1C[C@@H](O)C2)N[C@H]1CC(CF)(CF)Oc2cc(Cl)ccc21 [Example 98, 1-[(4S)-7-chloro-2,2-bis(fluoromethyl)-3,4-dihydro-2H-chromen-4-yl]-3-[(2S)-2-hydroxy-2,3-dihydro-1H-inden-4-yl]urea] | 13% | 500 nM
O=C(Nc1cccc2c1C[C@H](O)C2)N[C@@H]1CC(CF)(CF)Oc2cc(OC(F)(F)F)ccc21 [Example 31, 1-[(4R)-2,2-bis(fluoromethyl)-7-(trifluoromethoxy)-3,4-dihydro-2H-chromen-4-yl]-3-[(2R)-2-hydroxy-2,3-dihydro-1H-inden-4-yl]urea] | 30% | 41 nM
